Literature values, collected in patent US11344598B2, “Herbal nanoformulations for treating psoriasis and other skin conditions” (Sirbal Ltd., priority 2016, dated 2022).

Conditions: in words

For `CCC(=O)O[C@]1(C(=O)CCl)[C@@H](C)C[C@H]2[C@@H]3CCC4=CC(=O)C=C[C@]4(C)[C@@]3(F)[C@@H](O)C[C@@]21C` [Clobetasol propionate, clobetasol propionate], the solubility in water is listed as “insoluble in water”.
